What was measured:
[1] = target: T1, MAO-A (Homo sapiens, UniProt P21397); assay: Effect of drugs on the binding of [^18F]FAZIN3 in postmortem human brain sections; conditions: for selectivity of binding for MAO-A versus MAO-B: by use of clorgyline (MAO-A inhibitor) and deprenyl (MAO-B inhibitor)
T1 construct: tissue Banner Sun Health Research Institute; host or cells: postmortem human anterior cingulate / corpus callosum sections (CN, AD, PD subjects)
T1 sequence (P21397 1-527): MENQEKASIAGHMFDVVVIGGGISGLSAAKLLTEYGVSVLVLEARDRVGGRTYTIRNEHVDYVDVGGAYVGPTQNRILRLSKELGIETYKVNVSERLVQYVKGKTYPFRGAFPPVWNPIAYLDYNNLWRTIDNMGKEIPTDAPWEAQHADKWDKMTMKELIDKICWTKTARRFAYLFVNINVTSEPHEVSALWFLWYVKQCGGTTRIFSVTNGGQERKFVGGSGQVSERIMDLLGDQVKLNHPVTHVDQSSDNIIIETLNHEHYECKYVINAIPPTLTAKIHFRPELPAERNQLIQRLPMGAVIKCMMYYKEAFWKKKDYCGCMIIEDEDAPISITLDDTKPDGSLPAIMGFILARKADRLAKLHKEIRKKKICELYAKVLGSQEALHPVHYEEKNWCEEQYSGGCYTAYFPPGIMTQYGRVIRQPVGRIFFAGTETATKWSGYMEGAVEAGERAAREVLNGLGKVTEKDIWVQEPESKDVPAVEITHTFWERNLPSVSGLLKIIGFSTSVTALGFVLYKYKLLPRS
Method: MK-6240 (10 μM) was used since it is known to bind to Tau. […] The slides containing the sections (10 μm thick) were preincubated in PBS buffer for 15 minutes in eight different slide chambers (one total binding and seven with the different drugs). The preincubation PBS buffer was discarded and appropriate amount of each drug (dissolved in ethanol) was added to the chambers with the slides. […] The chambers were incubated at 25° C. for 1.25 h. The slides were then washed with cold PBS buffer twice, and cold water, respectively. The slides with the brain sections were air dried, exposed overnight on a phosphor film, and then placed on the Phosphor Autoradiographic Imaging System/Cyclone Storage Phosphor System (Packard Instruments Co).

[2] = target: Tau protein (Homo sapiens, UniProt P10636); assay: In vitro binding in human AD brain slices using [^125I]IPPI; conditions: [^125I]IPPI labeled human AD brain slices
Chain of Tau protein (Homo sapiens, UniProt P10636) (P10636 with tags, fused parts or gaps): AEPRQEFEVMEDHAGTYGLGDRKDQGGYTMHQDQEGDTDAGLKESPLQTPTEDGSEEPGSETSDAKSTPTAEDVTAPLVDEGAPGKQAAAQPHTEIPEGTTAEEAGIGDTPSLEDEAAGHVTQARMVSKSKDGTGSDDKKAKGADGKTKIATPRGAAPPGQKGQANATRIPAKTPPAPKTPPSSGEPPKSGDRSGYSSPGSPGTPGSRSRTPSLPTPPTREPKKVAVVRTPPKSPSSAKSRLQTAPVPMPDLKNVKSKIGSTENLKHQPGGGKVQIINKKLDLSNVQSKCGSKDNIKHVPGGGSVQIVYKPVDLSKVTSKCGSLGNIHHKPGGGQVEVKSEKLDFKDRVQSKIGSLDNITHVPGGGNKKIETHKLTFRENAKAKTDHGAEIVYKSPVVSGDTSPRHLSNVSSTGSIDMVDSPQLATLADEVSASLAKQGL
Method: Assessing the binding specificity of Flotaza. In vitro binding affinity of Flotaza in human AD brain slices using [^3H]PIB for Aβ plaques and [^125I]IPPI for Tau were carried out. […] Thus, Flotaza is a selective Aβ plaque agent.

[3] = test system: Aβ plaques; assay: Postmortem human brain autoradiography of [^18F]Flotaza in AD subjects; assay type: binding
Excerpt: Postmortem human brain autoradiography [^18F]Flotaza in AD subjects. Well characterized brain samples were obtained from Banner Health Research Institute. Brain slices from six AD subjects included anterior cingulate (gray matter, GM) and corpus callosum (white matter, WM) as shown for one subject in FIG. 24A. The AD brain sections of the six AD subjects were further confirmed to contain Aβ plaques in the GM regions by immunostaining with anti-Aβ Biolegend (known to stain Aβ1-16) as shown in FIG. 24B.
It must be noted that in these experiments, after [^18F]Flotaza binding, the slices were washed with 50% alcohol in PBS buffer.

[4] = target: human Aβ plaques (Homo sapiens, UniProt P05067); assay: In vitro binding affinity in human AD brain slices using [^3H]PIB; conditions: human AD brain slices (anterior cingulate, corpus callosum)
Chain of human Aβ plaques (P05067 672-713): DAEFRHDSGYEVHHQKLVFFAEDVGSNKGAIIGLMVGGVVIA
Method: Analytical thin-layer chromatography (TLC) was used to monitor reactions (Baker-flex, Phillipsburg, N.J., USA). RadioTLC were scanned on an AR-2000 imaging scanner (Eckart & Ziegler, Berlin, Germany). Electrospray mass spectra were obtained from a Model 7250 mass spectrometer (Micromass LCT). Proton NMR spectra were recorded on a Bruker OM EGA 500-MHz spectrometer. Tritium was assayed by using a Packard Tri-Carb Liquid scintillation counter with 65% efficiency. Human postmortem brain tissue samples were obtained from Banner Sun Health Research Institute, Sun City, Ariz. brain tissue repository for in vitro experiments. Age and gender matched AD brain and cognitively normal (CN) brain tissue samples selected for end-stage pathology (Braak & Braak stage of VI; Braak and Braak 1991). Human postmortem brain slices were obtained from chunks of frozen tissue on a Leica 1850 cryotome cooled to −20° C. Tritium and iodine-125, and fluorine-18 autoradiographic studies were carried out by exposing tissue samples on storage phosphor screens (Perkin Elmer Multisensitive, Medium MS and tritium sensitive phosphor screens). The apposed phosphor screens were read and analyzed by OptiQuant acquisition and analysis program of the Cyclone Storage Phosphor System (Packard Instruments Co., Boston, Mass.). […]

[5] = test system: Aβ plaques; conditions: hippocampal AD brain sections; cited from earlier work
[6] = test system: Tau protein; assay: [^125I]IPPI / [^124I]IPPI autoradiography of postmortem AD brain slices; assay type: binding, human
Method: FIG. 18A-H: provides the results of [^125I]IPPI competitive binding assay with various inhibitors. (A) Postmortem human brain 10 μm thick sections (from two AD subjects, 11-107 and 11-38) of anterior cingulate (AC) grey matter (arrows showing GM) and corpus callosum (CC) white matter (WM). (B) [^125I]IPPI binding to grey matter, AC with low nonspecific binding in white matter, CC. […] (E) BrPPI, 10 μM effect on [^125I ]IPPI binding. (F) MK-6240, 10μM effect on [^125I]IPPI binding. (G) Immunostaining of 11-38 with Dako A0024 for total Tau; (i) picture of entire slice and (ii) magnification (x10) of box in (i). (H) Plot comparing GM and WM in the two AD subjects with different drugs.

[7] = test system: Aβ plaques; assay: ^125I-IAZA brain autoradiography in postmortem human AD brain; assay type: binding; conditions: anterior cingulate
Excerpt: FIG. 22A-F provides the results of brain autoradiography in postmortem human brain from an Alzheimer patient using ^125I-IAZA and ^124I-IAZA. (A) AD brain slice showing gray matter (GM), anterior cingulate and white matter (WM) corpus callosum. […] (D) AD brain cortex slice showing gray matter on the left edges. (E)-(F) ^125I-IAZA binding in the outer regions containing gray matter which is consistent with Tau buildup.

4-O-[^18F]FluoroPEG3-2-(1H-pyrrolo[2,3-c]pyridine-1-yl)pyridine [[^18F]FAZIN3]
selectivity of binding for MAO-A versus MAO-B [1]: selective MAO-A binding

FCCOCCOCCOc1ccnc(-n2ccc3ccncc32)c1 [FAZIN3, 4-O-FluoroPEG3-2-(1H-pyrrolo[2,3-c]pyridine-1-yl)pyridine]
selectivity of binding for MAO-A versus MAO-B [1]: selectively bound to MAO-A

CN(C)c1ccc(N=Nc2ccc(OCCOCCOCCF)cc2)cc1 [Flotaza]
effect on the binding of [^125I]IPPI [2]: did not have any significant effect

Nc1c(F)ccc2cnc(-n3ccc4ccncc43)cc12 [MK-6240, reference compound]
displacement (inhibition) of [^18F]FAZIN3 binding ([1]; drug 10 μM, human brain sections): did not have much effect

CNc1ccc(-c2nc3ccc(O)cc3s2)cc1 [PIB, reference compound]
effect on grey matter binding of [^18F]Flotaza ([3]; AD brain sections treated with the drug): significantly reduced

CNc1ccc(N=Nc2ccc(N(C)C)cc2)cc1 [TAZA]
Ki [4]: 0.54 nM

[11CH3]Nc1ccc(-c2nc3ccc(O)cc3s2)cc1 [[^11C]PIB]
GM/WM ratios [5]: lower GM/WM ratios

CN(C)c1ccc(N=Nc2ccc(OCCOCCOCC[18F])cc2)cc1 [[^18F]Flotaza]
binding in the grey matter regions of AD subjects ([3]; anterior cingulate, AD subjects): Extensive binding | ratio between gray matter and white matter binding ([3]; six AD subjects, slices washed with 50% alcohol in PBS buffer): > 100

[125I]c1ccc2cnc(-n3ccc4ccncc43)cc2c1 [[^125I]IPPI, 6-[^125I]iodo-3-(1H-pyrrolo[2,3-c]pyridine-1-yl)isoquinoline]
sensitivity of binding to MAO inhibitors ([6]; MAO inhibitors at <1 μM concentrations): resistance to MAO inhibitors | binding to Tau protein / neurofibrillary tangles in Alzheimer's disease brain grey matter ([6]; postmortem AD brain slices): Excellent binding

CN(C)c1ccc(N=Nc2ccc([125I])cc2)cc1 [^125I-IAZA]
binding in gray matter of AD brain slices [7]: binding in the gray matter regions

Source: US20220008563A1, “RADIOLABELLED AND NONRADIOLABELLED PEGYLATED COMPOUNDS AND USES THEREOF” (The Regents of the University of California, priority 2020, published 2022)
